This assay has as its system MDA-MB231 breast cancer cells. Description: Microcapillary motility assay (MMA) with agents that alter microtubule dynamics. It counts as cell-based, human. The following applies: for kymograph analysis of single cell motility: 18 hour period, FIG. 13; for concentration at which persistent motility is inhibited: microcapillaries, no chemical gradient; for effect on persistent migration behavior: different concentrations, summary of Example 11; for effect on speed of cancer cell migration through the microcapillary array: result in words. The text has this: Referring now to FIGS. 7A-7B, a microcapillary motility assay (MMA) device 700 including microfluidic devices 750 were manufactured by casting polydimethyl siloxane (PDMS, Dow Corning, Midland. Mich.) on a microstructured mold. The microstructured mold was fabricated using standard photolithographic technologies. A silicon wafer was coated with a 10 μm thin layer of photoresist (SU8, Microchem, Newton, Mass.) and processed following the standard protocol as recommended by the manufacturer. A second, thicker layer of approximately 50 μm was then photopatterned on the same wafer and aligned with respect to the first layer in order to define the connections between the capillaries and the wells. The mold was placed in a Petri-dish and covered with PDMS freshly prepared according to the manufacturer's instructions. After baking for 8 hours at 65° C., the cast PDMS was removed from the mold, one microwell for each device was punched using a 2 mm puncher, and each device was cut using a 5 mm puncher. After exposure for 20 seconds to oxygen plasma in a plasma asher (March, Concord, Calif.), the devices were individually bonded on the coverslips at the bottom of 24-well plates (Mattek, Ashland, Mass.).
After bonding, and while the PDMS was still hydrophilic, 2 μL of a solution of 2 μg/mL collagen IV was added inside the center microwell of each device. The strong capillary force ensured the collagen solution filled the capillaries. Excess collagen was later washed away by adding 5 μL of phosphate buffer (PBS) in only one well of the devices. Alternatively, 2 μL of Matrigel (BD Biosciences, San Jose, Calif.) was added in one well at 4° C. and the entire plate was heated to 37° C. for 5 minutes.
Before performing each migration assay, cells growing in cell culture flasks were washed with PBS, lifted from the surface using trypsin or 10 mM calcium chelator solution in buffer (EDTA, Sigma Aldrich, St. Louis, Mo.), suspended into 10 mL of media, centrifuged, and re-suspended into media at 10^6 cells/mL. Cells were then seeded in one well of each device, by directly pipetting 3-4 μL of the cell suspension in each well. After loading the cells, 3 mL of corresponding media were added to each well of the multi-well plate, completely covering the devices.
To image the moving cells, the multi-well plate was placed on the motorized stage of a Zeiss Axiovert microscope fitted with an environmental chamber. The environment was set at 37.7° C. and 5% CO2. Cells were imaged using 10× objective and phase contrast. Three separate images from each array were acquired every 6 minutes for 24-48 hours. Because cell motility is restricted only along the capillary, in one linear dimension, the motility is easy to image and easy to quantify for extended periods of times. We have tracked cells for more than 72 hours.
To quantify the migration of individual cells, images were analyzed using the manual tracking function in the Image J software. The middle of cells was tracked through the series of frames and only cells entering the microcapillaries were tracked. At least 50 cells migrating through the capillaries were tracked for each condition. Average velocity over 12 hours was calculated from temporary velocities over each 6 minutes interval and presented as mean and standard error of the mean.
To probe into the mechanisms responsible for persistent cell migration, we exposed the cells to drugs that alter microtubule dynamics while performing the MMA described in Example 2 using the microfluidic device shown in FIG. 2.

[1] abbreviates: MDA-MB231 breast cancer line, FIG. 11.

“Also recorded” adds a separate entry of the source.

With `CC(=O)O[C@H]1C(=O)[C@@]2(C)[C@H]([C@H](OC(=O)c3ccccc3)[C@]3(O)C[C@H](OC(=O)[C@H](O)[C@@H](NC(=O)c4ccccc4)c4ccccc4)C(C)=C1C3(C)C)[C@]1(OC(C)=O)CO[C@@H]1C[C@@H]2O` [Taxol, Paclitaxel], the “effect on persistent migration behavior” value is recorded as “does not alter the persistent migration” and the “effect on speed of cancer cell migration through the microcapillary array” value is given as “significantly decrease the speed”. For the same compound, the “kymograph analysis of single cell motility” value (taxol 12 nM) is given as “persistent movement along the microcapillary; also recorded: reverses direction at the end of the microcapillary”. Moreover, the “concentration at which persistent motility is inhibited” value under setting [1] is “above 100 ng/mL”. Further, the “speed of the fastest cells under drug” value (Taxol between 1 and 10 μM, some cells only) was > 100 μm/hour.

As for `COC(=O)Nc1nc2ccc(C(=O)c3cccs3)cc2[nH]1` [Nocodazole], the “effect on persistent migration behavior” value was “alteration of the persistent migration behavior” and the “effect on speed of cancer cell migration through the microcapillary array” value is recorded as “significantly decrease the speed”. Moreover, under “nocodazole 0.05 ng/mL”, the “kymograph analysis of single cell motility” value was “frequent changes of direction and less persistence”. In addition, the “concentration at which migration of the fastest moving cells is inhibited” value (MDA-MB231 breast cancer line, FIG. 11, only Nocodazole) is on record as “above 1 ng/mL”. Also, the “concentration at which persistent motility is inhibited” value under setting [1] is “above 0.5 ng/mL”. Moreover, the “concentration that significantly altered the speed of migration for all cells in the population” value (all cells in the population) was > 1 µM. The “concentration of significant decrease in motility (dose response)” value (migration through microcapillary array) is given as < 100 nM.

The values above are taken from patent US8790891B2, “Microfluidic cell motility assay” (The General Hospital Corporation, priority 2009, dated 2014).
